# Results: patent US20210115104A1, “AMYLIN ANALOGUES” (Zealand Pharma A/S, priority 2015, published 2021)
# Read-outs that look alike come from different tables or passages of the source. *1 amine or outer side, *2 acyl side, *3 side chain or, on linkers, in order; H or OH if unused. Where a SMILES comes first, the peptide text is derived from it. Bridges are numbered along the chain shown (N, C = ends). [ ]: non-standard residue; d: D form. The star is where a group is joined. C20 diacid = O=C(O)CCCCCCCCCCCCCCCCCCC(=O)*; γGlu = O=C(O)[C@H](CCC(=O)[*:2])N[*:1]; Hyp = O=C(O)[C@@H]1C[C@@H](O)CN1; NMeI = CC[C@H](C)[C@H](NC)C(=O)O; Aad = N[C@@H](CCCC(=O)O)C(=O)O; Sar = CNCC(=O)O
# Key:
# [1] = target: T1, human calcitonin receptor (hCTR2) (Homo sapiens, UniProt P30988); experiment: hCTR2 cAMP assay (AlphaScreen) in COS7 cells; type: cell-based
# T1 construct: expressed in transfected cells
# T1 sequence (P30988 25-474): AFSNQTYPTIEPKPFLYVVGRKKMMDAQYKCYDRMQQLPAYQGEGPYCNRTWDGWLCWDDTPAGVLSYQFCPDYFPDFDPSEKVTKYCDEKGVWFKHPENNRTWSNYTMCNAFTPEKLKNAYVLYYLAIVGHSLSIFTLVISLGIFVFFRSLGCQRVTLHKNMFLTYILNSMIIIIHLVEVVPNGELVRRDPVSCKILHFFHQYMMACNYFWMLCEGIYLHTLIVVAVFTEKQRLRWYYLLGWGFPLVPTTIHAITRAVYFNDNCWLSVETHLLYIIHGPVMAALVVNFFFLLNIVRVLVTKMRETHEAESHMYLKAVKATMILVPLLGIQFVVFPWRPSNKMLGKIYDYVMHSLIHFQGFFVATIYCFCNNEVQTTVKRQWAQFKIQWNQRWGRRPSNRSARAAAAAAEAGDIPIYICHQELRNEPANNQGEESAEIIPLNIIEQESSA
# Method in brief: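 Stable hCTR2 clone in RAMP-naïve COS7 cells stimulated 15 min at 37 °C with increasing peptide concentrations in Tyrode buffer pH 7.4 containing IBMX and 0.1% casein. cAMP in lysates measured by AlphaScreen; EC50 from 4-parameter logistic fit.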
# [2] = Assessment of physical stability (Thioflavin T fibrillation); type: physicochemical; design: key: FND = fibrillation not detected; FD = fibrillation detected; details: 1 mg/ml, 40° C., ThT; for Fibrillation pH 4.0 (Ac): 50 mM acetate buffer pH 4.0, 96 hours; for Fibrillation pH 7.0 (His): 50 mM histidine buffer pH 7.0, 96 hours; for Fibrillation pH 7.0 (Phos.): 50 mM phosphate buffer pH 7.0, 96 hours
# Method in brief: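 1 mg/ml peptide with 40 μM ThT in 50 mM phosphate pH 7.0, 50 mM histidine pH 7.0 or 50 mM acetate pH 4.0, in triplicate. Fluorescence read every 10 min after 300 s agitation over 96 h at 40 °C. Lag-time (h) is the intersection of linear fits to stable and growth phases.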
# [3] = target: T2, human amylin receptor 3 (hAMYR3), hCTR2 co-expressed with hRAMP3 (Homo sapiens, UniProt O60896+P30988); experiment: hAMYR3 cAMP assay (AlphaScreen) in COS7 cells; type: cell-based
# T2 construct: expressed in transfected cells
# T2 sequence (P30988 25-474): T1 sequence (P30988 25-474)
# T2 sequence (O60896 24-148 partner): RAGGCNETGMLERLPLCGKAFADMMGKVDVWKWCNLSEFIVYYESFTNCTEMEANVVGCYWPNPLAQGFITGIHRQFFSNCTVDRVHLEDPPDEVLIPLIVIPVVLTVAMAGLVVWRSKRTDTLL
# Method in brief: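 Stable COS7 clone co-expressing hCTR2 and hRAMP3 was exposed to increasing peptide concentrations in Tyrode buffer (pH 7.4) with 100 µM IBMX and 0.1% casein for 15 min at 37 °C. Lysate cAMP was measured by AlphaScreen; EC50 came from 4-parameter logistic fitting.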
# [4] = Assessment of chemical stability (RP-HPLC normalized purity); type: physicochemical
# Method in brief: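 Peptides at 0.2 mg/ml in water adjusted to pH 4, 6, 7.5 or 9, incubated at 40° C for 7 days. Main-peak area-% by RP-HPLC (C8 ammonium formate or C18 TFA gradient, UV 220 nm), normalized to T=0 as 100.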
# [5] = cAMP induction, COS7 cells expressing hCTR2, Table 1, read-out: hCTR2 EC50
# [6] = cAMP induction, COS7 cells expressing hAMYR3, Table 1, read-out: hAMYR3 EC50
"EC50 [1, 5] [nM]",Fibrillation pH 4.0 (Ac) [2],Fibrillation pH 7.0 (His) [2],Fibrillation pH 7.0 (Phos.) [2],"EC50 [3, 6] [nM]",SMILES,EC50 [1] [nM],"Normalized purity pH 4 (Table 5) ([4]; pH 4, repeat of Example 6 for pairs with/without Asn-Asn at 21-22)","Normalized purity pH 6 (Table 5) ([4]; pH 6, repeat of Example 6 for pairs with/without Asn-Asn at 21-22)","Normalized purity pH 7.5 (Table 5) ([4]; pH 7.5, repeat of Example 6 for pairs with/without Asn-Asn at 21-22)","Normalized purity pH 9 (Table 5) ([4]; pH 9, repeat of Example 6 for pairs with/without Asn-Asn at 21-22)",EC50 [3] [nM]
0.079,FND,FND,FND,0.23,"CC[C@H](C)[C@@H](C(=O)N[C@@H](CC(C)C)C(=O)N[C@@H](CO)C(=O)N[C@@H](CO)C(=O)N[C@H](C(=O)N[C@@H](CCC(=O)O)C(=O)N[C@H](C(=O)NCC(=O)N[C@@H](CO)C(=O)N[C@@H](CCC(=O)O)C(=O)N[C@H](C(=O)N1CCC[C@H]1C(N)=O)[C@@H](C)O)C(C)C)[C@@H](C)O)N(C)C(=O)[C@H](C)NC(=O)CN(C)C(=O)[C@H](Cc1ccccc1)NC(=O)[C@H](CO)NC(=O)[C@H](CO)NC(=O)[C@H](CCCNC(=N)N)NC(=O)[C@H](Cc1c[nH]cn1)NC(=O)[C@H](CC(C)C)NC(=O)[C@H](Cc1ccccc1)NC(=O)[C@H](CC(=O)O)NC(=O)[C@H](C)NC(=O)[C@H](CC(C)C)NC(=O)[C@H](CCCNC(=N)N)NC(=O)[C@H](CCC(N)=O)NC(=O)[C@@H](NC(=O)[C@H](C)NC(=O)[C@@H]1CSSC[C@H](NC(=O)[C@H](CCCNC(=N)N)NC(=O)CC[C@H](NC(=O)CCCCCCCCCCCCCCCCCCC(=O)O)C(=O)O)C(=O)N[C@@H](CC(N)=O)C(=O)N[C@@H]([C@@H](C)O)C(=O)N[C@@H](C)C(=O)N[C@@H]([C@@H](C)O)C(=O)N1)[C@@H](C)O [Compound 1, [19CD]-isoGlu-R-C( )-NTAT-C( )-ATQRLADFLHRSSF-Gly(Me)-A-Ile(Me)-LSSTEVGSETP-NH2] ({C20 diacid-γGlu}-RCNTATCATQRLADFLHRSSF[Sar]A[NMeI]LSSTEVGSETP-NH2; disulfide 2-7)",–,–,–,–,–,–
0.19,FND,FD,FND,0.33,"CC[C@H](C)[C@@H](C(=O)N[C@@H](CC(C)C)C(=O)N[C@@H](CO)C(=O)N[C@@H](CO)C(=O)N[C@H](C(=O)N[C@@H](CCC(=O)O)C(=O)N[C@H](C(=O)NCC(=O)N[C@@H](CO)C(=O)N[C@@H](CCC(=O)O)C(=O)N[C@H](C(=O)N1CCC[C@H]1C(N)=O)[C@@H](C)O)C(C)C)[C@@H](C)O)N(C)C(=O)[C@H](C)NC(=O)CN(C)C(=O)[C@H](Cc1ccccc1)NC(=O)[C@@H](NC(=O)[C@H](CO)NC(=O)[C@H](CCCNC(=N)N)NC(=O)[C@H](Cc1c[nH]cn1)NC(=O)[C@H](CC(C)C)NC(=O)[C@H](Cc1ccccc1)NC(=O)[C@H](Cc1c[nH]cn1)NC(=O)[C@H](C)NC(=O)[C@H](CC(C)C)NC(=O)[C@H](CCCNC(=N)N)NC(=O)[C@H](CCC(N)=O)NC(=O)[C@@H](NC(=O)[C@H](C)NC(=O)[C@@H]1CSSC[C@H](NC(=O)[C@H](CCCNC(=N)N)NC(=O)CC[C@H](NC(=O)CCCCCCCCCCCCCCCCCCC(=O)O)C(=O)O)C(=O)N[C@@H](CC(N)=O)C(=O)N[C@@H]([C@@H](C)O)C(=O)N[C@@H](C)C(=O)N[C@@H]([C@@H](C)O)C(=O)N1)[C@@H](C)O)C(C)C [Compound 20, [19CD]-isoGlu-R-C( )-NTAT-C( )-ATQRLAHFLHRSVF-Gly(Me)-A-Ile(Me)-LSSTEVGSETP-NH2] ({C20 diacid-γGlu}-RCNTATCATQRLAHFLHRSVF[Sar]A[NMeI]LSSTEVGSETP-NH2; disulfide 2-7)",–,–,–,–,–,–
0.12,FND,FD,FD,0.23,"CC[C@H](C)[C@@H](C(=O)N[C@@H](CC(C)C)C(=O)N[C@@H](CO)C(=O)N[C@@H](CO)C(=O)N[C@H](C(=O)N[C@@H](CCC(=O)O)C(=O)N[C@H](C(=O)NCC(=O)N[C@@H](CO)C(=O)N[C@@H](CCC(=O)O)C(=O)N[C@H](C(=O)N1CCC[C@H]1C(N)=O)[C@@H](C)O)C(C)C)[C@@H](C)O)N(C)C(=O)[C@H](C)NC(=O)CN(C)C(=O)[C@H](Cc1ccccc1)NC(=O)[C@H](CO)NC(=O)[C@@H](NC(=O)[C@H](CCCNC(=N)N)NC(=O)[C@H](Cc1c[nH]cn1)NC(=O)[C@H](CC(C)C)NC(=O)[C@H](Cc1ccccc1)NC(=O)[C@H](Cc1c[nH]cn1)NC(=O)[C@H](C)NC(=O)[C@H](CC(C)C)NC(=O)[C@H](CCCNC(=N)N)NC(=O)[C@H](CCC(N)=O)NC(=O)[C@@H](NC(=O)[C@H](C)NC(=O)[C@@H]1CSSC[C@H](NC(=O)[C@H](CCCNC(=N)N)NC(=O)CC[C@H](NC(=O)CCCCCCCCCCCCCCCCCCC(=O)O)C(=O)O)C(=O)N[C@@H](CC(N)=O)C(=O)N[C@@H]([C@@H](C)O)C(=O)N[C@@H](C)C(=O)N[C@@H]([C@@H](C)O)C(=O)N1)[C@@H](C)O)C(C)C [Compound 21, [19CD]-isoGlu-R-C( )-NTAT-C( )-ATQRLAHFLHRVSF-Gly(Me)-A-Ile(Me)-LSSTEVGSETP-NH2] ({C20 diacid-γGlu}-RCNTATCATQRLAHFLHRVSF[Sar]A[NMeI]LSSTEVGSETP-NH2; disulfide 2-7)",–,–,–,–,–,–
–,–,–,–,–,"CC[C@H](C)[C@@H](C(=O)N[C@@H](CC(C)C)C(=O)N[C@@H](CO)C(=O)N[C@@H](CO)C(=O)N[C@H](C(=O)N[C@@H](CCC(=O)O)C(=O)N[C@H](C(=O)NCC(=O)N[C@@H](CO)C(=O)N[C@@H](CC(N)=O)C(=O)N[C@H](C(=O)N1C[C@H](O)C[C@H]1C(N)=O)[C@@H](C)O)C(C)C)[C@@H](C)O)N(C)C(=O)[C@H](C)NC(=O)CN(C)C(=O)[C@H](Cc1ccccc1)NC(=O)[C@H](CC(N)=O)NC(=O)[C@H](CC(N)=O)NC(=O)[C@H](CO)NC(=O)[C@H](CO)NC(=O)[C@H](CCCNC(=N)N)NC(=O)[C@H](CCC(N)=O)NC(=O)[C@H](CC(C)C)NC(=O)[C@H](Cc1ccccc1)NC(=O)[C@H](CCCC(=O)O)NC(=O)[C@H](C)NC(=O)[C@H](CC(C)C)NC(=O)[C@H](CCCNC(=N)N)NC(=O)[C@H](CC(=O)O)NC(=O)[C@@H](NC(=O)[C@H](C)NC(=O)[C@@H]1CSSC[C@H](NC(=O)[C@H](CCCNC(=N)N)NC(=O)CC[C@H](NC(=O)CCCCCCCCCCCCCCCCCCC(=O)O)C(=O)O)C(=O)N[C@@H](CCC(N)=O)C(=O)N[C@@H]([C@@H](C)O)C(=O)N[C@@H](C)C(=O)N[C@@H]([C@@H](C)O)C(=O)N1)[C@@H](C)O [Compound 100, [19CD]-isoGlu-R-C( )-QTAT-C( )-ATDRLA-Aad-FLQRSSNNF-Gly(Me)-A-Ile(Me)-LSSTEVGSNT-Hyp-NH2, reference compound] ({C20 diacid-γGlu}-RCQTATCATDRLA[Aad]FLQRSSNNF[Sar]A[NMeI]LSSTEVGSNT[Hyp]-NH2; disulfide 2-7)",2.2,A (A = >90%),A (A = >90%),A (A = >90%),B (B = 70-90%),0.53
